Reference: PMC9610702, “Synthesis, Characterization, and Biological Evaluation of Tetrahydropyrimidines: Dual-Activity and Mechanism of Action” (Pharmaceutics, 2022)
In brackets after ≈: the same amount, converted by molar mass. Like-named read-outs stand apart in the source and are kept apart here.

Experiments:
[1] = system: normal human lung fibroblasts MRC-5; experiment: cytotoxic activity on normal cells; type: cell-based; conditions: MRC5, MRC-5 normal fibroblasts, three independent experiments in triplicate, read-out: IC50 Average ± SD
From the text: (§1) All materials and methods used for biological examination (antibacterial, antifungal, anticancer, and α-glucosidase inhibitory activities) and crystal structure determination are presented in the Supplementary Materials, File S1.
The cytotoxic activity of eleven novel compounds was examined against HeLa, K562, MDA-MB-231, and MRC-5.
The cytotoxic activity was examined against HeLa, K562, MDA-MB-231 cells, and normal human lung fibroblasts MRC-5. […] In addition, the effects of the 4k and 4b on the cell cycle were examined.

α-glucosidase = α-glucosidase inhibitory activity; type: biochemical; conditions: average ± SD of two experiments
From the text: as §1

K562 cells = experiment: cytotoxic activity; type: cell-based; conditions: K562, three independent experiments in triplicate, read-out: IC50 Average ± SD
From the text: (§2) All materials and methods used for biological examination (antibacterial, antifungal, anticancer, and α-glucosidase inhibitory activities) and crystal structure determination are presented in the Supplementary Materials, File S1. The cytotoxic activity of eleven novel compounds was examined against HeLa, K562, MDA-MB-231, and MRC-5. The tested compounds exerted concentration-dependent cytotoxic effects on cell lines. […] Compared to compound 4j, 4k has a methyl group in para position of benzoyl fragment; so, probably this structural difference is responsible for better activity and selectivity of compound 4k on HeLa (43.63 ± 1.49 µM) and K562 (39.11 ± 2.90 µM).

HeLa cells = experiment: cytotoxic activity; type: cell-based; conditions: HeLa, three independent experiments in triplicate; for IC50: read-out: IC50 Average ± SD
From the text: as §2

MDA-MB-231 cells = experiment: cytotoxic activity; type: cell-based; conditions: three independent experiments in triplicate, read-out: IC50 Average ± SD
From the text: as §2

Staphylococcus aureus = experiment: antibacterial MIC, broth tube dilution; type: cell-based
From the text: (§3) In this paper, the synthesis, characterization, and biological evaluation of the novel tetrahydropyrimidines—THPMs are described. THPMs are well-known for wide pharmacological activities such as antimicrobial, anticancer, antiviral, etc. This research includes obtained results of in vitro antimicrobial, anticancer, and α-glucosidase inhibitory activities of the eleven novel THPMs. An antibiotic assessment was done against five bacteria (two Gram-positive and three Gram-negative) and five fungi by determining the minimal inhibitory concentration (MIC), using the broth tube dilution method. […] The cytotoxic activity was performed on the tumor cell lines (HeLa, K562, and MDA-MB-231) and normal cells (MRC-5). The best antitumor activity was shown by compounds 4b and 4k against HeLa cell lines.
as §1

Klebsiella oxytoca = experiment: antibacterial MIC, broth tube dilution; type: cell-based
From the text: as §3, §1

Bacillus subtilis = experiment: antibacterial MIC, broth tube dilution; type: cell-based
From the text: as §3, §1

Proteus mirabilis = experiment: antibacterial MIC, broth tube dilution; type: cell-based; conditions: ND = not detected
From the text: as §3, §1

Escherichia coli = experiment: antibacterial MIC, broth tube dilution; type: cell-based
From the text: as §3, §1

Aspergillus flavus = experiment: antifungal MIC, broth tube dilution; type: cell-based
From the text: as §3, §1

Penicillium italicum = experiment: antifungal MIC, broth tube dilution; type: cell-based
From the text: as §3, §1

[2] = system: Trichophyton mentagrophytes; experiment: antifungal MIC, broth tube dilution; type: cell-based
From the text: as §3, §1

Mucor mucedo = experiment: antifungal MIC, broth tube dilution; type: cell-based
From the text: as §3, §1

Aspergillus niger = experiment: antifungal MIC, broth tube dilution; type: cell-based
From the text: as §3, §1

SMILES	IC50 [1]	IC50 (α-glucosidase)	IC50 (K562 cells; Homo sapiens)	IC50 (HeLa cells; Homo sapiens)	IC50 (MDA-MB-231 cells; Homo sapiens)	MIC (Staphylococcus aureus)	MIC (Klebsiella oxytoca)	MIC (Bacillus subtilis)	MIC (Proteus mirabilis; read-out: MIC)	MIC (Escherichia coli)	MIC (Aspergillus flavus)	MIC (Penicillium italicum)	MIC [2]	MIC (Mucor mucedo)	MIC (Aspergillus niger)	IC50 Average ± SD (HeLa cells)	MIC (Proteus mirabilis)	IC50 (K562 cells)	IC50 (HeLa cells)	IC50 (MDA-MB-231 cells)
COC(=O)C1=C(C)N(C)C(=S)NC1c1cc(Br)c(O)c(OC)c1 (stereo not shown) [4a]	187 ± 4.66 µM	313 ± 7.73 µM	79 ± 7.49 µM	97.4 ± 5.4 µM	144 ± 8.29 µM	1620 µg/mL (≈ 4.04 mM)	1620 µg/mL (≈ 4.04 mM)	3250 µg/mL (≈ 8.1 mM)	810 µg/mL (≈ 2.02 mM)	1620 µg/mL (≈ 4.04 mM)	1620 µg/mL (≈ 4.04 mM)	1620 µg/mL (≈ 4.04 mM)	400 µg/mL (≈ 0.997 mM)	1620 µg/mL (≈ 4.04 mM)	1620 µg/mL (≈ 4.04 mM)	–	–	–	–	–
COC(=O)C1=C(C)N(C)C(=S)NC1c1cc(OC)c(O)c([N+](=O)[O-])c1 (stereo not shown) [4c]	196 ± 5.89 µM	–	180 ± 9.15 µM	> 200 µM	> 200 µM	1620 µg/mL (≈ 4.41 mM)	1620 µg/mL (≈ 4.41 mM)	3250 µg/mL (≈ 8.85 mM)	1620 µg/mL (≈ 4.41 mM)	1620 µg/mL (≈ 4.41 mM)	400 µg/mL (≈ 1.09 mM)	1620 µg/mL (≈ 4.41 mM)	400 µg/mL (≈ 1.09 mM)	1620 µg/mL (≈ 4.41 mM)	810 µg/mL (≈ 2.2 mM)	very low cytotoxicity	–	–	–	–
COC(=O)C1=C(C)N(C)C(=S)NC1c1cc(OC)c(OC(C)=O)c([N+](=O)[O-])c1 (stereo not shown) [4d]	193 ± 10.3 µM	1120 ± 20.6 µM	165 ± 8.5 µM	> 200 µM	> 200 µM	810 µg/mL (≈ 1.98 mM)	1620 µg/mL (≈ 3.96 mM)	3250 µg/mL (≈ 7.94 mM)	810 µg/mL (≈ 1.98 mM)	1620 µg/mL (≈ 3.96 mM)	1620 µg/mL (≈ 3.96 mM)	1620 µg/mL (≈ 3.96 mM)	400 µg/mL (≈ 0.977 mM)	1620 µg/mL (≈ 3.96 mM)	1620 µg/mL (≈ 3.96 mM)	very low cytotoxicity	–	–	–	–
CCC(=O)Oc1ccc(C2NC(=S)N(C)C(C)=C2C(=O)OC)cc1OC (stereo not shown) [4e]	128 ± 3.2 µM	674.8 ± 5.65 µM	149 ± 5.74 µM	197 ± 3.93 µM	> 200 µM	3250 µg/mL (≈ 8.59 mM)	3250 µg/mL (≈ 8.59 mM)	3250 µg/mL (≈ 8.59 mM)	–	1620 µg/mL (≈ 4.28 mM)	1620 µg/mL (≈ 4.28 mM)	1620 µg/mL (≈ 4.28 mM)	200 µg/mL (≈ 0.528 mM)	1620 µg/mL (≈ 4.28 mM)	1620 µg/mL (≈ 4.28 mM)	–	no inhibitory effect	–	–	–
COC(=O)C1=C(C)N(C)C(=S)NC1c1ccc(OC(=O)C2CC2)c(OC)c1 (stereo not shown) [4f]	196 ± 5.54 µM	767.9 ± 5.91 µM	123 ± 8.52 µM	135 ± 9.32 µM	161 ± 9.69 µM	3250 µg/mL (≈ 8.32 mM)	3250 µg/mL (≈ 8.32 mM)	3250 µg/mL (≈ 8.32 mM)	1620 µg/mL (≈ 4.15 mM)	3250 µg/mL (≈ 8.32 mM)	1620 µg/mL (≈ 4.15 mM)	1620 µg/mL (≈ 4.15 mM)	200 µg/mL (≈ 0.512 mM)	1620 µg/mL (≈ 4.15 mM)	810 µg/mL (≈ 2.07 mM)	–	–	–	–	–
COC(=O)C1=C(C)N(C)C(=S)NC1c1ccc(OC(C)=O)c(OC)c1 (stereo not shown) [4g]	193 ± 9.59 µM	192 ± 5.95 µM	153 ± 2.58 µM	197 ± 3.55 µM	> 200 µM	3250 µg/mL (≈ 8.92 mM)	1620 µg/mL (≈ 4.45 mM)	3250 µg/mL (≈ 8.92 mM)	810 µg/mL (≈ 2.22 mM)	1620 µg/mL (≈ 4.45 mM)	1620 µg/mL (≈ 4.45 mM)	1620 µg/mL (≈ 4.45 mM)	400 µg/mL (≈ 1.1 mM)	1620 µg/mL (≈ 4.45 mM)	1620 µg/mL (≈ 4.45 mM)	–	–	–	–	–
CCOc1cccc(C2NC(=S)N(C)C(C)=C2C(=O)OC)c1OC(C)=O (stereo not shown) [4h]	77.8 ± 2.57 µM	933 ± 25.2 µM	79.9 ± 6.73 µM	121 ± 9.96 µM	114 ± 12.9 µM	3250 µg/mL (≈ 8.59 mM)	3250 µg/mL (≈ 8.59 mM)	3250 µg/mL (≈ 8.59 mM)	3250 µg/mL (≈ 8.59 mM)	3250 µg/mL (≈ 8.59 mM)	1620 µg/mL (≈ 4.28 mM)	1620 µg/mL (≈ 4.28 mM)	810 µg/mL (≈ 2.14 mM)	1620 µg/mL (≈ 4.28 mM)	1620 µg/mL (≈ 4.28 mM)	–	–	–	–	–
COC(=O)C1=C(C)N(C)C(=S)NC1c1ccc(OC(=O)c2ccccc2)c(OC)c1 (stereo not shown) [4j, methyl 4-(4′-benzoyloxy-3′-methoxyphenyl)-1,2,3,4-tetrahydro-1,6-dimethyl-2-thioxopyrimidine-5-carboxylate]	104 ± 8.61 µM	–	68 ± 6.53 µM	78.1 ± 5.78 µM	123 ± 2.19 µM	3250 µg/mL (≈ 7.62 mM)	3250 µg/mL (≈ 7.62 mM)	3250 µg/mL (≈ 7.62 mM)	1620 µg/mL (≈ 3.8 mM)	3250 µg/mL (≈ 7.62 mM)	1620 µg/mL (≈ 3.8 mM)	1620 µg/mL (≈ 3.8 mM)	400 µg/mL (≈ 0.938 mM)	1620 µg/mL (≈ 3.8 mM)	1620 µg/mL (≈ 3.8 mM)	–	–	–	–	–
OC(Cn1cncn1)(Cn1cncn1)c1ccc(F)cc1F [Fluconazole, reference compound]	–	–	–	–	–	–	–	–	–	–	1000 µg/mL (≈ 3.27 mM)	1000 µg/mL (≈ 3.27 mM)	250 µg/mL (≈ 0.816 mM)	1000 µg/mL (≈ 3.27 mM)	500 µg/mL (≈ 1.63 mM)	–	–	–	–	–
[H]/N=C(/N)N[C@H]1[C@H](O)[C@@H](O)[C@H](O[C@@H]2O[C@@H](C)[C@](O)(C=O)[C@H]2O[C@@H]2O[C@@H](CO)[C@H](O)[C@@H](O)[C@@H]2NC)[C@@H](N/C(N)=N\[H])[C@@H]1O [Streptomycin, reference compound]	–	–	–	–	–	31 µg/mL (≈ 0.0533 mM)	8 µg/mL (≈ 0.0138 mM)	16 µg/mL (≈ 0.0275 mM)	62 µg/mL (≈ 0.107 mM)	62 µg/mL (≈ 0.107 mM)	–	–	–	–	–	–	–	–	–	–
N.N.[Cl][Pt][Cl] [cisPt, reference compound]	–	–	–	–	–	–	–	–	–	–	–	–	–	–	–	–	–	6.89 ± 0.21 µM	4.91 ± 0.74 µM	14.7 ± 0.36 µM
